Assay results taken from US4459290A, “C-23-Modified derivatives of OMT, pharmaceutical compositions and method of use” (priority 1982, dated 1984).

Tests used:
Assay type in all cases: cell-based
[1] = tested on: Escherichia coli EC14; assay: MIC, standard agar-dilution assay (Table V); settings: Escherichia coli; E. coli EC14; agar dilution; read-out: MIC
Procedure: (§1) Especially noteworthy is the improved activity against gram-negative bacteria for several derivatives when compared to the activity of OMT. […] The MIC's in Tables V and VI were determined by standard agar-dilution assays. The MIC's in Table VII were obtained using a conventional broth-dilution microtiter test.

[2] = tested on: Escherichia coli N10; assay: MIC, standard agar-dilution assay (Table V); settings: Escherichia coli; E. coli N10; agar dilution; read-out: MIC
Procedure: as §1

[3] = tested on: Klebsiella pneumoniae KAE; assay: MIC, standard agar-dilution assay (Table V); settings: Klebsiella pneumoniae; K. pneumoniae KAE; agar dilution; read-out: MIC
Procedure: as §1

[4] = tested on: Klebsiella pneumoniae X26; assay: MIC, standard agar-dilution assay (Table V); settings: Klebsiella pneumoniae, X26
Procedure: as §1

[5] = tested on: Shigella sonnei N9; assay: MIC, standard agar-dilution assay (Table V)
Procedure: as §1

[6] = tested on: Staphylococcus aureus S13E; assay: MIC, standard agar-dilution assay (Table V); settings: Staphylococcus aureus, S13E
Procedure: as §1

[7] = tested on: Staphylococcus aureus V41; assay: MIC, standard agar-dilution assay (Table V); settings: Staphylococcus aureus; S. aureus V41, penicillin-resistant strain; agar dilution; read-out: MIC
Procedure: as §1

[8] = tested on: Staphylococcus aureus X1.1; assay: MIC, standard agar-dilution assay (Table V); settings: Staphylococcus aureus, X1.1
Procedure: as §1

[9] = tested on: Staphylococcus aureus X400; assay: MIC, standard agar-dilution assay (Table V); settings: Staphylococcus aureus; S. aureus X400, methicillin-resistant strain; agar dilution; read-out: MIC
Procedure: as §1

[10] = tested on: Staphylococcus epidermidis EPI1; assay: MIC, standard agar-dilution assay (Table V); settings: Staphylococcus epidermidis; S. epidermidis EPI1; agar dilution; read-out: MIC
Procedure: as §1

[11] = tested on: Staphylococcus epidermidis EPI2; assay: MIC, standard agar-dilution assay (Table V); settings: Staphylococcus epidermidis; S. epidermidis EPI2; agar dilution; read-out: MIC
Procedure: as §1

[12] = tested on: Streptococcus Group 9960; assay: MIC, standard agar-dilution assay (Table V); settings: GROUP9960
Procedure: as §1

[13] = tested on: Streptococcus Group D X66; assay: MIC, standard agar-dilution assay (Table V)
Procedure: as §1

[14] = tested on: Escherichia coli TEM; assay: MIC, standard agar-dilution assay (Table V); settings: Escherichia coli; E. coli TEM; agar dilution; read-out: MIC
Procedure: (§2) The MIC's in Tables V and VI were determined by standard agar-dilution assays. The MIC's in Table VII were obtained using a conventional broth-dilution microtiter test.

[15] = tested on: Streptococcus pyogenes C203; assay: MIC, standard agar-dilution assay (Table V); settings: Streptococcus pyogenes; S. pyogenes C203; agar dilution; read-out: MIC
Procedure: as §2

[16] = tested on: Streptococcus pneumoniae Park I; assay: microbe, parasite or virus in culture; settings: Streptococcus pneumoniae; S. pneumoniae Park I; agar dilution; read-out: MIC
Procedure: as §1

[17] = tested on: Mycoplasma gallisepticum; assay: MIC, broth-dilution microtiter test (Table VII); settings: Mycoplasmoides gallisepticum; M. gallisepticum; broth-dilution microtiter; read-out: MIC
Procedure: as §1

[18] = tested on: Mycoplasma hyorhinis; assay: MIC, broth-dilution microtiter test (Table VII)
Procedure: as §1

[19] = tested on: Mycoplasma synoviae; assay: MIC, broth-dilution microtiter test (Table VII); settings: Mycoplasmopsis synoviae
Procedure: as §1

[20] = tested on: Pasteurella hemolytica 22C; assay: MIC, broth-dilution microtiter test (Table VII); settings: Pasteurella, P. hemolytica 22C, read-out: MIC
Procedure: as §1

[21] = tested on: Pasteurella hemolytica 23C; assay: MIC, broth-dilution microtiter test (Table VII); settings: Pasteurella, P. hemolytica 23C, read-out: MIC
Procedure: as §1

[22] = tested on: Pasteurella hemolytica 41D; assay: MIC, broth-dilution microtiter test (Table VII); settings: Pasteurella, P. hemolytica 41D, read-out: MIC
Procedure: as §1

[23] = tested on: Pasteurella multocida 17E; assay: MIC, broth-dilution microtiter test (Table VII); settings: Pasteurella multocida, 17E
Procedure: as §1

[24] = tested on: Pasteurella multocida 22A; assay: MIC, broth-dilution microtiter test (Table VII); settings: Pasteurella multocida, 22A
Procedure: as §1

[25] = tested on: Pasteurella multocida 40G; assay: MIC, broth-dilution microtiter test (Table VII); settings: Pasteurella multocida, 40G
Procedure: as §1

[26] = tested on: Pasteurella multocida 60A; assay: MIC, broth-dilution microtiter test (Table VII); settings: Pasteurella multocida, 60A
Procedure: as §1

[27] = tested on: Pasteurella multocida 68C; assay: MIC, broth-dilution microtiter test (Table VII); settings: Pasteurella multocida, 68C
Procedure: as §1

[28] = tested on: Staphylococcus aureus; assay: MIC, broth-dilution microtiter test (Table VII); settings: Staphylococcus aureus
Procedure: as §1

[29] = tested on: Streptococcus sp. 80; assay: MIC, broth-dilution microtiter test (Table VII); settings: Streptococcus sp. 80; broth-dilution microtiter; read-out: MIC
Procedure: as §1

[30] = tested on: these strains; assay: Activity against the strains of Table VI, agar-dilution; settings: at the levels tested
Procedure: as §1

In the case of `CCC1OC(=O)CC(O)C(C)C(OC2OC(C)C(O)C(N(C)C)C2OC(C)=O)C(CC=O)CC(C)C(=O)C=CC(C)=CC1C[n+]1ccccc1` (stereo not drawn) [Compound 1, 2'-O-Acetyl-23-deoxy-23-pyridinium-OMT Trifluoro methanesulfonate], the MIC [1] is reported as greater than 128 µg/mL, the MIC [2] is reported as greater than 128 µg/mL and the MIC [3] is reported as greater than 128 µg/mL. The MIC [4] was 64 µg/mL, the MIC [5] was greater than 128 µg/mL and the MIC [6] was 32 µg/mL. The MIC [7] was 64 µg/mL, the MIC [8] was 32 µg/mL and the MIC [9] was 64 µg/mL. It also gave an MIC [10] of 32 µg/mL, an MIC [11] of 64 µg/mL and an MIC [12] of 64 µg/mL. For the same compound, the MIC [13] was 64 µg/mL, the MIC [14] was greater than 128 µg/mL and the MIC [15] was 32 µg/mL. For the same compound, the MIC [16] was 8 µg/mL, the MIC [17] was 25 µg/mL and the MIC [18] was 50 µg/mL. For the same compound, the MIC [19] was 12.5 µg/mL, the MIC [20] was greater than 50 µg/mL and the MIC [21] was greater than 50 µg/mL. The MIC [22] was greater than 50 µg/mL, the MIC [23] was greater than 50 µg/mL and the MIC [24] was greater than 50 µg/mL. For the same compound, the MIC [25] was greater than 50 µg/mL, the MIC [26] was greater than 50 µg/mL and the MIC [27] was greater than 50 µg/mL. For the same compound, the MIC [28] was 50 µg/mL, the MIC [29] was 12.5 µg/mL and the “activity against these strains” value [30] was “did not show activity”.
